# According to PMC10504751, “Chalcone/1,3,4-Oxadiazole/Benzimidazole hybrids as novel anti-proliferative agents inducing apoptosis and inhibiting EGFR & BRAFV^600E” (BMC Chemistry, 2023):
# Values joined by “and” are separate entries in the source; they are usually repeats but may differ in a detail not shown here. Equal values may be shown once.
# How the values were obtained:
# [1] = system: Caspase-8 in MCF-7 breast cancer cells; test: Caspase-8 assay; type: cell-based, human; conditions: for Caspase-8 Fold change: MCF-7, vs untreated control; for Caspase-8 Conc: MCF-7 breast cancer cells
# [2] = system: Panc-1, A-549, MCF-7 and HT-29; test: Propidium iodide anti-proliferative assay, four cell lines together; type: cell-based; conditions: Homo sapiens; range over Panc-1, A-549, MCF-7, HT-29; read-out: IC50 range on the four tested cell lines
# Description: The propidium iodide (PI) tests^31, 32 were further used for assessment of the IC50 of all synthesized compounds and compared to Doxorubicin as a positive control against four cancer cell lines; pancreatic cancer cell line (Panc-1), epithelial line cancer cell (A-549), breast cancer cell line (MCF-7), and colon cancer cell line (HT-29).
# Using the propidium iodide fluorescence assay with doxorubicin as the reference drug, IC50 of the 24 compounds 7a-x, was carried out according to a previously reported procedure^31, 32 against a panel of four human cancer cell lines; epithelial cancer cell line (A-549), breast cancer cell line (MCF-7), colon cancer cell line (HT-29) and pancreas cancer cell line (Panc-1). Compounds 7a-x were incubated with cancer cells for 2 days at different concentrations. See Appendix A.
# To explore the antiproliferative potential of compounds propidium iodide fluorescence assay was performed using different cell lines (melanoma cancer cell line LOX-IMVI, pancreatic cancer cell line (Panc-1), epithelial line cancer cell (A-549), breast cancer cell line (MCF-7), and colon cancer cell line (HT-29). To calculate the total nuclear DNA, a fluorescent dye (propidium iodide, PI) is used which can attach to the DNA,^9,^10 thus offering a quick and precise technique. PI cannot pass through the cell membrane and its signal intensity can be considered as directly proportional to the quantity of cellular DNA. Cells whose cell membranes are damaged or have changed permeability are counted as dead ones. The assay was performed by seeding the cells of different cancer cell lines at a density of 3000-7500 cells/well (in 200µl medium) in culture plates followed by incubation for 24h at 37 °C in humidified 5% CO2/95% air atmospheric conditions. […] A fluorometer (Polar-Star BMG Tech) was used to record the readings at excitation and emission wavelengths of 530 and 620 nm for each well. The percentage cytotoxicity of compounds was calculated using the following formula:
# Where ATC= Absorbance of treated cells and AC= Absorbance of control. […]
# [3] = system: MCF-7 cells; test: Cell cycle analysis; type: cell-based, human; conditions: MCF-7, IC50 (0.95 µM), 24 h
# Source text: From the previous results, it was concluded that compound 7k might arrest cells at G1/S and prevent it from entering G2/M phase as indicated by decreased percentage of accumulation of cells in G2/M phase compared to control.
# [4] = system: Bcl-2 in MCF-7; test: Bcl-2 inhibition assay; conditions: for Bcl-2 Conc: MCF-7; for Bcl-2 Fold reduction: MCF-7, vs untreated control
# Description: All reagents were thoroughly mixed without foaming before use. The microwells were washed twice with approximately 300 µL Wash Buffer per well with the thorough aspiration of microwell contents between washes. Care was taken not to scratch the surface of the microwells. After the last wash, the wells were emptied and microwell strips were tapped on an absorbent pad or paper towel to remove excess Wash Buffer. The microwell strips were used immediately after washing or placed upside down on a wet absorbent paper for not longer than 15 min. Wells were not allowed to dry. A total of 100 µL of Sample Diluent was added in duplicate to all standard wells and the blank wells. Standard (1:2 dilution) in duplicate was prepared ranging from 32 to 0.5 ng/mL. A total of 100 µL of Sample Diluent, in duplicate, was added to the blank wells. A total of 80 µL of Sample Diluent, in duplicate, was added to the sample wells. A total of 20 µL of each sample, in duplicate, was added to the designated wells. A total of 50 µL of diluted biotin was added, conjugated to all wells, including the blank wells. It was covered with a plate cover and incubated at room temperature on a microplate shaker at 100 rpm for 2 h. The plate cover was removed and the wells were emptied. Microwell strips were washed times as described in Step 2. A total of 100 µL of diluted Streptavidin-HRP was added to all wells, including the blank wells. It was covered with a plate cover and incubated at room temperature on a microplate shaker at 100 rpm for 1 h. The plate cover was removed and the wells were emptied. Microwell strips were washed three times, as described in Step 2. A total of 100 µL of mixed TMB Substrate Solution was pipetted into all wells, including the blanks. The microwell strips were incubated at room temperature (18 ◦C to 25 ◦C) for about 15 min, on a rotator set at 100 rpm. Direct exposure to intense light was avoided. The point at which the substrate reaction is stopped was determined by the ELISA reader. Many ELISA readers record absorbance only up to 2.0 O.D. Therefore, the color development within individual microwells was watched by the person running the assay, and the substrate reaction was stopped before positive wells were no longer properly detectable. The enzyme reaction was stopped by quickly pipetting 100 µL of Stop Solution into each well, including the blank wells. It was important that the Stop Solution was spread quickly and uniformly throughout the microwells to inactivate the enzyme completely. Results were read immediately after the Stop Solution was added or within one hour if the microwell strips were stored at 2–8 ◦C in the dark. The absorbance of each microwell was read on a spectrophotometer using 450 nm as the primary wavelength.
# [5] = system: Caspase-9 in MCF-7 breast cancer cells; test: Caspase-9 assay; type: cell-based, human; conditions: for Caspase-9 Fold change: MCF-7, vs untreated control; for Caspase-9 Conc: MCF-7 breast cancer cells
# [6] = system: Caspase-3 in MCF-7 breast cancer cells; test: Caspase-3 assay; conditions: for Caspase-3 Fold change: MCF-7, vs untreated control; for Caspase-3 Conc: MCF-7 breast cancer cells
# Description: All reagents were allowed to reach room temperature before use. All liquid reagents were gently mixed before use. The number of 8-well strips needed for the assay was determined. These were inserted into the frame(s) for current use. A total of 100 µL of the Standard Diluent Buffer was added to the zero standard wells. Well(s) reserved for chromogen blank were left empty. A total of 100 µL of standards and controls or diluted samples was added to the appropriate microtiter wells. The sample dilution chosen was optimized for each experimental system. The side of the plate was gently tapped on to
# mix. Wells were covered with a plate cover and incubated for 2 h at room temperature. The solution was thoroughly aspirated or decanted from the wells and the liquid was discarded; wells were washed four times. […] The side of the plate was gently tapped on to mix. The plate was covered with a plate cover and incubated for 1h at room temperature. The solution was thoroughly aspirated or decanted from wells and the liquid was discarded; wells were washed four times. A total of 100 µL Anti-Rabbit IgG HRP Working Solution was added to each well except the chromogen blank(s). The working dilution was prepared as described in Preparing IgG HRP. Wells were covered with the plate cover and incubated for 30 min at room temperature. The solution was thoroughly aspirated or decanted from the wells and the liquid was discarded. Wells were washed four times. A total of 100 µL of Stabilized Chromogen was added to each well. The liquid in the wells began to turn blue. It was incubated for 30 min at room temperature and in the dark. The incubation time for chromogen substrate was determined by the microtiter plate reader used. Many plate readers have the capacity to record a maximum optical density (O.D.) of 2.0. The O.D. values were monitored, and the substrate reaction was stopped before the O.D. of the positive wells exceeds the limits of the instrument. The O.D. values at 450 nm could only be read after the Stop Solution had been added to each well. A total of 100 µL of Stop Solution was added to each well. The side of the plate was gently tapped to mix. The solution in the wells changed from blue to yellow. The absorbance of each well was read at 450 nm, having blanked the plate reader against a chromogen blank composed of 100 µL each of Stabilized Chromogen and Stop Solution. The plate was read within 2 h after adding the Stop Solution. A curve fitting software was used to generate the standard curve.
# The concentrations for unknown samples and controls from the standard curve were read. Value(s) obtained for sample(s) by the appropriate dilution factor were multiplied to correct for the dilution in step 3.
# [7] = system: MCF-7 cells; test: Annexin V-FITC/PI apoptosis detection; type: cell-based, human; conditions: MCF-7, IC50 (0.95 µM), 24 h
# Description: To further study the root for cytotoxic activity of compound 7k, Annexin V-FITC/PI assay method^40, 41 was used to investigate its capability to induce apoptosis.
# Apoptosis was determined by flow cytometry based on the Annexin-V-fluoresce in isothiocyanate (FITC) and propidium iodide (PI) staining kit (BD Pharmingen, San Diego, USA) See Appendix A.
# Apoptosis was determined by flow cytometry based on the Annexin-V-fluoresce in isothiocyanate (FITC) and propidium iodide (PI) staining kit (BD Pharmingen, San Diego, USA.^15^,1^6 […] Apoptotic cells were defined as Annexin-V-positive. […] Treated cells were trypsinized, washed twice with PBS and transferred into micro centrifuge tubes for centrifugation at1000 rpm for 5 min at room temperature, then resuspended in binding buffer, 5 μL of FITC and PI were added to per eppendorf tube, cells were vortexed, incubated for 15 min at room temperature in dark. Subsequently, cells were analyzed by flow cytometry (Becton Dickinson, Franklin Lakes, and USA).
Structure (SMILES),Caspase-8 Fold change [1],Caspase-8 Conc [1] [ng/mL],IC50 [2] [nM],percentage of cells in G2/M phase ([3]; control 12.22%) [%],percentage of cells in S phase ([3]; control 29.51%) [%],percentage of cells in G0-G1 phase ([3]; control 58.27%) [%],Bcl-2 Conc [4],Bcl-2 Fold reduction [4] [fold],Caspase-9 Fold change [5],Caspase-9 Conc [5] [ng/mL],Caspase-3 Fold change [6],Caspase-3 Conc [6] [pg/mL],early apoptosis [7] [%],late apoptosis [7] [%],necrosis [7] [%]
"COc1ccc(-c2nc3cc(-c4nnc(SCC(=O)Nc5ccc(C(=O)/C=C/c6ccccc6)cc5)o4)ccc3[nH]2)cc1 [Compound 7k, 2-{5-[2-(4-Methoxyphenyl)-1 H-benzo[d]imidazol-5-yl]-1,3,4-oxadiazol-2-ylthio}-N-{4-[(E)-3-phenylacryloyl]phenyl}acetamide]",10 fold and 9.90 fold,1.680,950 to 1400,3.19,34.86,61.95,0.94 ng/mL and 0.940 ng/mL,5.4,17 fold and 17.00 fold,15.900,8 fold and 7.60 fold,501.60 ± 4.00,28.71,12.63,3.05
"COc1ccc(-c2nc3cc(-c4nnc(SCC(=O)Nc5ccc(C(=O)/C=C/c6ccc(Cl)cc6)cc5)o4)ccc3[nH]2)cc1 [Compound 7l, 2-{5-[2-(4-Methoxyphenyl)-1 H-benzo[d]imidazol-5-yl]-1,3,4-oxadiazol-2-ylthio}-N-{4-[(E)-3-(4-chlorophenyl)acryloyl]phenyl}acetamide]",9 fold and 9.30 fold,1.570,1100 to 1650,,,,0.97 ng/mL and 0.975 ng/mL,5.2,16 fold and 16.00 fold,15.100,7.50 fold,492.50 ± 4.00,,,
"COc1ccc(/C=C/C(=O)c2ccc(NC(=O)CSc3nnc(-c4ccc5[nH]c(-c6ccc(OC)cc6)nc5c4)o3)cc2)cc1 [Compound 7m, 2-{5-[2-(4-Methoxyphenyl)-1 H-benzo[d]imidazol-5-yl]-1,3,4-oxadiazol-2-ylthio}-N-{4-[(E)-3-(4-methoxyphenyl)acryloyl]phenyl}acetamide]",7.90 fold,1.350,,,,,1.050 ng/mL,4.9,15.00 fold,13.900,7.20 fold,473.60 ± 3.50,,,
